Where only a bound is given, the exact number is not on record here.

Consider one compound from ChEMBL document CHEMBL4043225, “Identification of potent, nonabsorbable agonists of the calcium-sensing receptor for GI-specific administration” (Bioorg Med Chem Lett, 2017).

The target in data set [1] is T1, Extracellular calcium-sensing receptor (Rattus norvegicus, UniProt P48442).
T1 sequence (P48442 whole entry): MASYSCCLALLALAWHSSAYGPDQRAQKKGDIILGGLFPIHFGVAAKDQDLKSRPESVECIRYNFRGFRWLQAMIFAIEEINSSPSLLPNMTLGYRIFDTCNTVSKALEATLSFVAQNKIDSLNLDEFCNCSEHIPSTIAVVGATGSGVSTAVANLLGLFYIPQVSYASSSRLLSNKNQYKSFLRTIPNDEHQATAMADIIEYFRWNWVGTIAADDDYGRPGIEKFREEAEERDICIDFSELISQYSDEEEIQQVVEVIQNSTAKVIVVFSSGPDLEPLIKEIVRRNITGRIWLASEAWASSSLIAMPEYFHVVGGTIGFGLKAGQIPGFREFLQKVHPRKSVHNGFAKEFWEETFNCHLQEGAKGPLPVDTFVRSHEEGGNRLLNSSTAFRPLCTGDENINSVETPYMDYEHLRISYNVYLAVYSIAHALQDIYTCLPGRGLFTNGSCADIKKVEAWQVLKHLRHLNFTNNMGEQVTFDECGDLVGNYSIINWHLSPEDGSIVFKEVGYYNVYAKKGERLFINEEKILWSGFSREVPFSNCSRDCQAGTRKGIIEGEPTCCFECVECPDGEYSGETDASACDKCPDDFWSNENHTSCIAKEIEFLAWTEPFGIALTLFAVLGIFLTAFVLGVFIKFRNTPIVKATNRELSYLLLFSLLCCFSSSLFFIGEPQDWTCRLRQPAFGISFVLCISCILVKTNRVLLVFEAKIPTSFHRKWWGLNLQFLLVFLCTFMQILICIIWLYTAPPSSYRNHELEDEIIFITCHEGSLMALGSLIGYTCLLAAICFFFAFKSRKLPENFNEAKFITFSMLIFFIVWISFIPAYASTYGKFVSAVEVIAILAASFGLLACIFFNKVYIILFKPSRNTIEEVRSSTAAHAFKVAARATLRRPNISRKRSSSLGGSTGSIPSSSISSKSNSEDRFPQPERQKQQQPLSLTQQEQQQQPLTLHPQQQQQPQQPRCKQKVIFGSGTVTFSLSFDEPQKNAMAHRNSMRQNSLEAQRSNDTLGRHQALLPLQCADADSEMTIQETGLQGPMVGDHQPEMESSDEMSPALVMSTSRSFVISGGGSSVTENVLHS
The experiment in a line: (§1) Agonist activity at rat CaSR expressed in HEK293 cells assessed as increase in intracellular calcium mobilization by fluo-4AM dye based FLIPR assay. It counts as functional, cell-based. In general terms: Calcium assays in cells follow changes in intracellular calcium, usually with a dye or a luminescent sensor.

Data set [2] addresses T2, Extracellular calcium-sensing receptor (Rattus norvegicus) (UniProt P48442).
T2 sequence (whole entry): T1 sequence (P48442 whole entry)
The data set is described as §1. Type of data set: functional, cell-based.

The test system of data set [3] is Rattus norvegicus. The experiment in a line: Unbound Cmax in CD rat portal vein at 10 mg/kg, po administered via gavage. Type of data set: ADME, organism-based. The following applies: in vivo.
Data set [4] relates to Rattus norvegicus. The experiment in a line: Unbound Cmax in CD rat systemic circulation at 10 mg/kg, po administered via gavage. Type of data set: ADME, organism-based. The following applies: in vivo.
Data set [5] can be described thus: Cmax in CD rat portal vein at 30 mg/kg, po administered via gavage. Type of data set: ADME, organism-based. Also on record: dose 30 mg/kg, route oral.
Data set [6] is described as follows: Cmax in CD rat systemic circulation at 30 mg/kg, po administered via gavage. Type of data set: ADME, organism-based. Also noted: dose 30 mg/kg, route oral.
The nature of data set [7]: Drug recovery in CD rat feces at 30 mg/kg, po administered via gavage measured by LC-MS/MS analysis. Particulars: read-out: Drug recovery. Type of data set: ADME, organism-based.
For data set [8], the target named is T3, Extracellular calcium-sensing receptor (Mus musculus, UniProt Q9QY96).
T3 sequence (Q9QY96 whole entry): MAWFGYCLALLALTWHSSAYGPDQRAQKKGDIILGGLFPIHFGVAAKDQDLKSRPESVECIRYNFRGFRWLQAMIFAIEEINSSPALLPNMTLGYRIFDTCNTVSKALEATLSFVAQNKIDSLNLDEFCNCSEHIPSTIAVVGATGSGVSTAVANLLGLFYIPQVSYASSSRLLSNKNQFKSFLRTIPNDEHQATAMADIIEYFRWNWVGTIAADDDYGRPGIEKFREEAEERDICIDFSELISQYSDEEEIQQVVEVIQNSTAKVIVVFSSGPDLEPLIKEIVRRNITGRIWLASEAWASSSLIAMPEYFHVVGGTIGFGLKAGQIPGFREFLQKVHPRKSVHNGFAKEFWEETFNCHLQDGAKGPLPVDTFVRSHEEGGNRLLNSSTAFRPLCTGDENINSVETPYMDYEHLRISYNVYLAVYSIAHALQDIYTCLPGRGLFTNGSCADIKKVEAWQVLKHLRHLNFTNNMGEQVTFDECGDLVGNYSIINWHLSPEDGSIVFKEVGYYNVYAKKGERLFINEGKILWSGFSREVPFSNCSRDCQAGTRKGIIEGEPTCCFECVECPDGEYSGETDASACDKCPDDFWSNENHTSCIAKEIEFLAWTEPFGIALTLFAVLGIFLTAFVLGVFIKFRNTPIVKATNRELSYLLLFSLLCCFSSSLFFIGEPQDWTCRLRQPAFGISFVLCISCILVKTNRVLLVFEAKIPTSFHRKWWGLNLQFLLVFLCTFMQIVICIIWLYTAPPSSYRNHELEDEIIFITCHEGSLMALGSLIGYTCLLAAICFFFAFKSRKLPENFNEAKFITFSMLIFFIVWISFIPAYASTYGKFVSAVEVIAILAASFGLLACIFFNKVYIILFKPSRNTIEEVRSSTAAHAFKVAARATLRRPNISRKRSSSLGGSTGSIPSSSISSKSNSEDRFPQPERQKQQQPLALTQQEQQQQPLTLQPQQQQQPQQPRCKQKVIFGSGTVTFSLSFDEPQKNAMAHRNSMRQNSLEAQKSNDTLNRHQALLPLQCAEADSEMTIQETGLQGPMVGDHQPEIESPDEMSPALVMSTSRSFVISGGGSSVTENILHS
The experiment in a line: (§2) Agonist activity at mouse CaSR expressed in HEK293 cells assessed as increase in intracellular calcium mobilization by fluo-4AM dye based FLIPR assay. It counts as functional, cell-based.

For data set [9], the target named is T4, Extracellular calcium-sensing receptor (Mus musculus) (UniProt Q9QY96).
T4 sequence (whole entry): T3 sequence (Q9QY96 whole entry)
Described as §2. It counts as functional, cell-based.

Data set [10] in a line: Aqueous solubility of the compound in FESSIF. It counts as physicochemical.
A short description of data set [11]: Aqueous solubility of the compound in SGF. It counts as physicochemical.
Data set [12] is described as follows: AUC in CD rat portal vein at 10 mg/kg, po administered via gavage. It counts as ADME, organism-based.
Data set [13] is described as follows: Half-life in Sprague-Dawley rat cecal homogenates at 10 uM by LC-MS/MS analysis. It counts as ADME, tissue-based, Caecum.
A short description of data set [14]: AUC in CD rat systemic circulation at 10 mg/kg, po administered via gavage. Type of data set: ADME, organism-based.
A short description of data set [15]: Protein binding in CD rat plasma at 10 mg/kg, administered via gavage. Particulars: po, read-out: PPB (converted). Type of data set: ADME, organism-based.

In the case of `C[C@@H](N[C@H]1CCN(c2ccc(C(=O)NCCCN3CCC(C(=O)O)CC3)cc2)C1)c1cccc2ccccc12`, the results for the EC50 in data set [1] and in [8] were 316 nM and 251 nM, respectively. Moreover, the %max in [2] is 66%; in data set [9], 62%. Besides, the figures for the fCmax in the data set on Rattus norvegicus [3] and with Rattus norvegicus [4] were 7 nM and 3 ng/mL, respectively. Moreover, the values for the peak concentration (Cmax) in [5] and in data set [6] were 57 ng/mL and 48 ng/mL, respectively. Also, the dose excreted in data set [7] was 86.3%. In addition, the solubility in data set [10] and in [11] was more than 1000 µg/mL throughout. The AUC in [12] is 265 ng·h/mL; in data set [14], 266 ng·h/mL. In data set [13], the half-life at 10 µM is more than 12 h. In addition, in data set [15], the fraction unbound is 0.07.

As usually defined, the EC50 is the midpoint of the concentration-response curve. The term Cmax denotes the peak of the concentration-time curve. The solubility is the dissolved amount per volume that the medium holds. Lower therefore signals a poorly soluble substance. By AUC is commonly meant the area under the concentration-time curve, a measure of exposure. A higher AUC goes with high exposure. What is called half-life is the time needed for the level to fall by half in the phase considered.
